# Reference: patent EP1658093B1, “USE OF A MIXTURE CONTAINING OXYTOCIN AND TESTOSTERON OR ESTRADIOL FOR TREATING DISTURBANCES OF PSYCHOSOCIAL EXPERIENCES AND BEHAVIOUR” (Beier, Klaus M., priority 2003, dated 2007)
# What was measured:
# [1] = Double-blind study: subjective state descriptions by questionnaire; assay type: in vivo; details: 4 Probanden
# Experimental: (§1) Untersucht wurden 4 Probanden, zwei heterosexuelle Paare mit jeweils mehr als 20jähriger Partnerschaftsdauer. In einer Doppelblindstudie wurden Oxytocin gegen Placebo, die Kombinationen Oxytocin/Estradiol an Männern und Oxytocin/Testosteron an Frauen gegen Placebo und gegen den "Austausch von Intimität" untersucht.
# (§2) Den Männern wurde Oxytocin nasal als Spraystoß (1 Spraystoß Syntocinon® = 4 I.E. Oxytocin) und Estradiol dermal als Membranpflaster(2 mg Estradiol mit der Freisetzungsrate von ca. […]; Estraderm TTS® 25) verabreicht.
# (§3) Den Frauen wurde Oxytocin nasal als Spraystoß (1 Spraystoß Syntocinon® = 4 I.E. Oxytocin) und Testosteron dermal als Membranpflaster (12,2 mg Testosteron mit einer Freisetzungsrate von ca. 0,1 mg/h; Androderm® 2,5 mg) verabreicht.
# (§4) Die Verabreichung von Oxytocin erfolgte nasal und doppelblind (Placebo und Verum) in zwei Dosierungen, 1 Sprühstoß = 4 I.E. Oxytocin und zwei Sprühstöße = 8 I.E. Oxytocin, jeweils fortlaufend im Abstand von einer Stunde. Oxytocin wurde sowohl vor als auch nach der Anlage des Membranpflasters verabreicht. Insgesamt wurden 4 nasale Interventionen vor und nach der zusätzlichen Sexualhormongabe durchgeführt, wobei das Verum 2 mal in unterschiedlichen Dosierungen gegeben wurde. Die ersten nasalen Interventionen erfolgten nach 2 Stunden Wirkzeit der Sexualhormone. […]
# [2] = Double-blind study: psychophysiological reaction patterns (SMARD-Watch), dynamic cross-correlation analysis; assay type: in vivo; details: mean over all 4 Probanden; Oxytocin nasal 4 or 8 I.E.; sex hormone as dermal patch (Estradiol in men, Testosteron in women); low coefficient = balanced sympathetic/parasympathetic regulation
# Experimental: as §1, §2, §3, §4
substance,measurement,setting,value
Oxytocin,subjektive Zustandsbeschreibungen (Selbstwahrnehmung),[1],stärker in Richtung Entspannung tendierte
same,Kreuzkorrelationskoeffizient,[2],"0,51"
